Consider 27 compounds from PubChem BioAssay (NCI).

The structures appear in SMILES notation.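 Each compound was tested at five concentrations against cells in 96-well plates for 48 hours. The concentration for full growth arrest is given as TGI.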 Some results are limits rather than exact numbers.

Assay in all cases: inhibition of tumour cell growth, NCI panel, 48 h
The subject of assay [1] is IGROV1 ovarian.
Assay [2] has as its system A498 renal.
The subject of assay [3] is 786-0 renal.
For assay [4], the system named is NCI-H460 lung.

Turning to `COc1ccc2c(c1)-c1nc(=S)n(CCCN(C)C)c3ccc([N+](=O)[O-])c(c13)N2`, the TGI in assay [1] was 2.41 µM; in assay [2], 22.2 µM; in assay [3], 1.36 µM; in assay [4], 10.3 µM.
For `Cc1ccc(S(=O)(=O)c2ccsc2NC(=O)C(F)(F)F)cc1`, in that order: greater than 100 µM, greater than 100 µM, greater than 100 µM and greater than 100 µM.
For `COc1ccccc1NC(=S)Nc1cc(C)cc(C)n1`, the TGI in assay [1], in assay [2], in assay [3] and in assay [4] was greater than 100 µM throughout.
For `CCOC(=O)N(NC(=O)NC(C)C)c1ccccc1`, the TGI in assay [1], in assay [2], in assay [3] and in assay [4] was greater than 100 µM throughout.
For `CN1CCN(c2ccc3[nH]c(-c4cc(O)c5c(nc(CO)n5C)c4O)nc3n2)CC1`, the TGI in assay [1], in assay [3] and in assay [4] was greater than 100 µM each time.
Regarding `COc1nc(N=P(c2ccccc2)(c2ccccc2)c2ccccc2)cc(=O)[nH]1`, the TGI in assay [1], in assay [2], in assay [3] and in assay [4] was greater than 100 µM in each case.
`O=c1oc2ccccc2cc1-c1csc(Nc2ccc(F)cc2)n1`: the TGI was found to be 21.9 µM in assay [1], 5.09 µM in assay [2], 3.17 µM in assay [3] and 22.3 µM in assay [4].
Turning to `Clc1ccccc1-c1nc2ccc(C34CC5CC(CC(C5)C3)C4)cc2[nH]1`, the TGI in assay [1] was 50.4 µM; in assay [2], 70 µM; in assay [3], 25.9 µM; in assay [4], greater than 100 µM.
For `O=c1[nH]nc(-c2ccccc2)n1/N=C/c1ccc([N+](=O)[O-])cc1`, in that order: greater than 100 µM, 49.7 µM, 22.9 µM and greater than 100 µM.
For `O=C(O)c1ccccc1/C=N/NC1=NCCN1` the same measures were greater than 100 µM, greater than 100 µM, greater than 100 µM and greater than 100 µM.
For `O=S(=O)(SC1=NCCN1)c1ccc2ccccc2c1` the same measures were greater than 100 µM, greater than 100 µM, 97.1 µM and 42.8 µM.
`CC(=N)OC1CC2CCC1(C)C2(C)C` (centres undefined): the TGI in assay [1], in assay [2], in assay [3] and in assay [4] was greater than 100 µM throughout.
`CC1(C)C2CCC(CN)(C2)C1N` (centres undefined): the TGI in assay [1], in assay [2], in assay [3] and in assay [4] was greater than 100 µM in each case.
Consider `COC(=O)c1cc(C)ccc1C1CN=NC12Cc1ccc(C)cc1C2=O` (centres undefined), for which the TGI is greater than 100 µM in assay [1], 91.3 µM in assay [2], greater than 100 µM in assay [3] and greater than 100 µM in assay [4].
Regarding `COc1ccc(C[C@@H](CO)NC2=C(C#N)CCC2)cc1`, the TGI in assay [2] is 97.9 µM; in assay [3], greater than 100 µM; in assay [4] it was greater than 100 µM.
Take `CCOC(=O)CCCNC(=O)CCCCC(=O)N(C)C`: the TGI in assay [1], in assay [2], in assay [3] and in assay [4] was greater than 100 µM in each case.
As for `CC(C)NC(NC(C)C)=C(S(=O)(=O)C(F)(F)C(F)(F)C(F)(F)C(F)(F)F)S(=O)(=O)C(F)(F)C(F)(F)C(F)(F)C(F)(F)F`, the TGI in assay [1], in assay [2], in assay [3] and in assay [4] was greater than 100 µM each time.
Regarding `O=C1CN(C(=O)C2CCCN2C(=O)C2CCCN2)C(=O)CN1` (centres undefined), the TGI in assay [1], in assay [2], in assay [3] and in assay [4] was greater than 100 µM throughout.
Consider `CCOC(=O)C1(Cc2ccccc2)C=CN(C(=O)c2ccccc2)C=C1`, for which the TGI is greater than 100 µM in assay [1], 74.3 µM in assay [2], greater than 100 µM in assay [3] and greater than 100 µM in assay [4].
Consider `Cc1nc(-c2cc3c(ccc4ccccc43)oc2=O)cs1`, for which the TGI in assay [1], in assay [3] and in assay [4] was greater than 100 µM each time.
With `Cc1cc(C)c2c(O)c(S(=O)(=O)c3ccc(Cl)cc3)c(=O)oc2c1`, the TGI in assay [1], in assay [2], in assay [3] and in assay [4] was greater than 100 µM throughout.
Take `O=[N+]([O-])c1ccc2c(c1)S(=O)(=O)N1Cc3ccccc3CCN21`: the TGI in assay [1], in assay [2], in assay [3] and in assay [4] was greater than 100 µM in each case.
In the case of `Cc1cc2cc3c(cc2c(-c2ccc([N+](=O)[O-])cc2)n1)OCO3`, the TGI is 54.9 µM in assay [1], greater than 100 µM in assay [2], 42.5 µM in assay [3] and greater than 100 µM in assay [4].
With `O=C1N=C(SC2OC(CO)C(O)C(O)C2O)S/C1=C\c1ccccc1` (centres undefined), the TGI in assay [1], in assay [2], in assay [3] and in assay [4] was greater than 100 µM each time.
For `O=C(Cn1c2c(c3ccccc31)CCCC2)N1CCCC1`, the TGI in assay [1], in assay [2], in assay [3] and in assay [4] was greater than 100 µM each time.
For `CC(=O)c1sc2c(c1OC(=O)c1ccco1)c(=O)n(-c1ccccc1)c(=S)n2-c1ccccc1`, the TGI in assay [1] is 54.2 µM; in assay [3], greater than 100 µM; in assay [4] it was greater than 100 µM.
Turning to `CCC/C=C/c1cc2c(cc1O)CC[C@@H]1[C@@H]2CC[C@]2(C)[C@@H](O)CC[C@@H]12`, the TGI in assay [1] stood at 49.4 µM; in assay [2], 31.8 µM; in assay [3], 30.1 µM; in assay [4], 33 µM.
